Legend:
Assay type in all cases: cell-based
[1] = system: renal proximal tubule epithelial cells (RPTEC); test: in vitro
Experimental: (§1) Cells were plated at 3,000 cells/well (RPTEC) or 5,000 cells/well (NHDF) in 96-well plates and incubated overnight at 37° C. The compounds were added to the wells, and the cells were incubated for 4 days. Alomar Blue was added to one set of plates and incubated for 4 hours. The plates were read when the compound was added (time zero) and at the end of the study. Fluorescence was read using 530 nm (excitation) and 590 nm (emission) according to the manufacturer's instructions.

[2] = system: normal human dermal fibroblasts (NHDF)
Experimental: as §1, with “Mammalian cell cytotoxicity assays were performed using two primary human cell lines: renal proximal tubule epithelial cells (RPTEC—Cambrex CC-2553) and normal human dermal fibroblasts (NHDF—Cambrex CC-2509). Cells” for “Cells”

[3] = in vitro; conditions: human
Experimental: as §1

[4] = system: Escherichia coli; test: Minimum inhibitory concentration assay; conditions: Mueller-Hinton broth, 18-24 hours at 35° C.; unit assumed
Experimental: (§2) The minimum inhibitory concentration (MIC) assay determines the lowest concentration of an antimicrobial agent required to inhibit the growth of test organisms after incubation. MIC assays were performed against an internal standard panel of organisms to identify compounds with antimicrobial activity. The MIC assay was subsequently repeated against other specialized microbial panels. Assays were conducted against the following clinically relevant microorganisms: Staphylococcus aureus subsp. aureus, Staphylococcus epidermis, Escherichia coli, Pseudomonas aeruginosa, Haemophilius influenzae. The compounds were tested for bacteriocidal activity, time course of killing, toxicity against tissue culture cells grown in vitro, and in some cases were tested for antimicrobial activity in vivo. The MIC assays were performed according to the Performance Standards for Antimicrobial Susceptibility Testing, 2006, vol. M100-S15, Fifteenth Informational Supplement, NCCLS, 940 West Valley Road, Suite 1400, Wayne, Pa. 19087. […] The solution was then filter-sterilized through a 0.22 μm filter. Two-fold serial dilutions of polymer were prepared in Mueller-Hinton broth with cations aliquotted into 96-well microtiter plates. The plates were then inoculated with 5×10^5 cells/mL of target organism and incubated 18-24 hours at 35° C. […] The MIC value is the lowest concentration of compound that inhibits growth; accordingly, a higher MIC value indicates less potency where a lower MIC valued indicated more potency.

[5] = system: Staphylococcus aureus subsp. aureus; test: Minimum inhibitory concentration assay; conditions: Mueller-Hinton broth, 18-24 hours at 35° C.; unit assumed
Experimental: as §2

[6] = system: Haemophilus influenzae; test: Minimum inhibitory concentration assay; conditions: Mueller-Hinton broth, 18-24 hours at 35° C.; unit assumed
Experimental: as §2

[7] = system: Pseudomonas aeruginosa; test: Minimum inhibitory concentration assay; conditions: Mueller-Hinton broth, 18-24 hours at 35° C.; unit assumed
Experimental: as §2

[8] = system: Staphylococcus epidermis; test: Minimum inhibitory concentration assay; conditions: Mueller-Hinton broth, 18-24 hours at 35° C.; unit assumed
Experimental: as §2

[9] = system: erythrocytes; test: Erythrocyte lysis assay; conditions: overnight 37° C., hematocrit 1%
Experimental: After incubation, the plates were centrifuged and the supernatant transferred to flat-bottomed 96-well plates. The supernatant was assayed using the QuantiChrom Hemoglobin kit according to the manufacturer's instructions. The IC50 values were calculated using GraphPad Prism.

[10] = system: human lung epithelial Carcinoma cell line (A 549); test: Cytotoxicity assay, human lung epithelial cells; parameters: unit not given here; conditions: A 549, 96 hours, CellTiter-Glo

4-guanidinobenzene terminated Poly(4,4-trimethylene dipiperidinebispropanoic acid-diaminopropane)
Cytotoxicity (Kidney Epithelial IC50) [1]: 6 µg/mL

Poly(4,4′-dipiperidinebispropionic acid-1,4-diaminobutane)
Cytotoxicity (Human Dermal Fibroblast IC50) [2]: 5

Poly(4,4′-trimethylenedipiperidinebispropionic acid-2-dydroxy 1,3-diaminopropane)
Cytotoxicity (Human Dermal Fibroblast IC50) [2]: 50

Poly(4,4′-dipiperidinebispropanoic acid-3,3′-diamino-N-methyl-dipropylamine) [Poly(4,4′-dipiperidinebispropanoic acid-3,3′-diamino-N-methy] [listing 1 of 2 here]
Cytotoxicity (Human Dermal Fibroblast IC50) [2]: 3

NCCCNC(=O)CCN1CCC(CCCC2CCN(CCC(=O)NCCCN)CC2)CC1 [4,4-trimethylene dipiperidinebispropanoic acid-diaminopropane]
CC50 at 4 days [3]: > 512 µg/mL | IC50 at 4 days ([3]; RPTEC, 4 days incubation, Alomar Blue, read-out: Cytotoxicity (Kidney Epithelial IC50)): > 512 µg/mL | Escherichia coli (MIC) [4]: > 128 µg/mL | Staphylococcus aureus subsp. aureus (MIC) [5]: > 128 µg/mL | Haemophilus influenzae (MIC) [6]: > 128 µg/mL | Pseudomonas aeruginosa (MIC) [7]: > 128 µg/mL | Staphylococcus epidermis (MIC) [8]: > 128 µg/mL | IC50 ([9]; Erythrocyte, read-out: Erythrocyte Lysis (Hemolysis IC50)): > 3200 µg/mL

Poly(piperazinebispropanoic acid-2,2-diaminodiethylamine)
Cytotoxicity (Human Dermal Fibroblast IC50) [2]: 1111.6

4,4′-trimethylene dipiperidinebispropanoic acid-diaminopropane heptamer
Cytotoxicity (Kidney Epithelial IC50) [1]: 190 µg/mL | Escherichia coli (MIC) [4]: 8 µg/mL | Staphylococcus aureus subsp. aureus (MIC) [5]: 2 µg/mL | Haemophilus influenzae (MIC) [6]: 128 µg/mL | Pseudomonas aeruginosa (MIC) [7]: > 128 µg/mL | Staphylococcus epidermis (MIC) [8]: 1 µg/mL | Erythrocyte Lysis (Hemolysis IC50) [9]: >3200 | Lung Epi IC50 [10]: 418.0

Poly(4,4-trimethylene dipiperidine bispropanoic acid-diaminoethane)
Cytotoxicity (Human Dermal Fibroblast IC50) [2]: 178

Carboxy terminated Poly(4,4-trimethylene dipiperidinebispropanoic acid-diaminopropane)
Cytotoxicity (Kidney Epithelial IC50) [1]: 43 µg/mL

Poly(4,4′-trimethylenedipiperidinebispropionic acid-bis(4-aminobutyl)ether)
Cytotoxicity (Human Dermal Fibroblast IC50) [2]: 3

Poly(piperazinebispropanoic acid-N-methyl-2,2-diaminodiethylamine)
Cytotoxicity (Human Dermal Fibroblast IC50) [2]: 3068.6

Poly(piperazinebispropanoic acid-N(3-aminopropyl)1,3-propanediamine)
Cytotoxicity (Human Dermal Fibroblast IC50) [2]: 15.3

Poly(piperazinebispropanoic acid-1,4-diaminobutane)
Cytotoxicity (Human Dermal Fibroblast IC50) [2]: 1905

Poly(piperazinebispropanoic acid-3,3′ diamino-N-methyl-dipropylamine)
Cytotoxicity (Kidney Epithelial IC50) [1]: 5.3 µg/mL

Poly(4,4′-trimethylene dipiperidinebispropanoic acid-1,4-benzyldiamine)
Cytotoxicity (Human Dermal Fibroblast IC50) [2]: 4.703

Poly(4,4-trimethylene dipiperidinebispropanoic acid-N(2-aminoethyl)-diaminoethane)
Cytotoxicity (Human Dermal Fibroblast IC50) [2]: 1.7

Poly (4,4′-trimethylene dipiperidine bispropanoic acid--N,N′-dimethyl-1,3-diaminopropane)
Cytotoxicity (Human Dermal Fibroblast IC50) [2]: 5

Poly(4,4′-dipiperidinebispropanoic acid-3,3′-diamino-dipropylamine) [Poly(4,4′-dipiperidinebispropanoic acid-3,3′-diamino-dipropy]
Cytotoxicity (Human Dermal Fibroblast IC50) [2]: 2

Methyl ester terminated Poly(4,4-trimethylene dipiperidinebispropanoic acid-diaminopropane)
Cytotoxicity (Kidney Epithelial IC50) [1]: 1.5 µg/mL

Poly(4,4-trimethylene dipiperidinebispropanoic acid-diaminopropane)
Cytotoxicity (Human Dermal Fibroblast IC50) [2]: 141.3

Poly(4,4′-dipiperidinebispropanoic acid-3,3′-diamino-N-methyl-dipropylamine) [Poly(4,4′-dipiperidinebispropanoic acid-3,3′-diamino-N-methy] [listing 2 of 2 here]
Cytotoxicity (Human Dermal Fibroblast IC50) [2]: 2

Poly(4,4-trimethylene dipiperidinebispropanoic acid 4,4′-dipiperidine)
Cytotoxicity (Human Dermal Fibroblast IC50) [2]: 2.0

Poly (4,4′-trimethylene dipiperidine bispropanoic acid-4,4′-trimethylene dipiperidine)
Cytotoxicity (Human Dermal Fibroblast IC50) [2]: 3

Poly(4,4′-dipiperidinebispropionic acid-1,3-diaminopropane)
Cytotoxicity (Human Dermal Fibroblast IC50) [2]: 7

Poly(4,4′-trimethylenedipiperidine-1,3-diamninopropane-N,N′-di-3-propionic acid)
Cytotoxicity (Human Dermal Fibroblast IC50) [2]: 2 | Cytotoxicity (Kidney Epithelial IC50) [1]: 2 µg/mL

4,4′-trimethylene dipiperidinebispropanoic acid-diaminopropane pentamer
Escherichia coli (MIC) [4]: 16 µg/mL | Staphylococcus aureus subsp. aureus (MIC) [5]: 16 µg/mL | Haemophilus influenzae (MIC) [6]: 64 µg/mL | Pseudomonas aeruginosa (MIC) [7]: > 128 µg/mL | Staphylococcus epidermis (MIC) [8]: 1 µg/mL | Erythrocyte Lysis (Hemolysis IC50) [9]: >3200 | Lung Epi IC50 [10]: 259.0

Source: patent publication US9326994B2, “Amine functional polyamides” (GENZYME CORPORATION, priority 2013, dated 2016)
